# Test results published in patent US20220211868A1, “NANOPARTICLES COMPRISING NON-CLASSICAL MHC AND USES THEREOF” (UTI Limited Partnership, priority 2019, published 2022).
# “Also recorded” adds a separate entry of the source.
# How the values were obtained:
# [1] = tested on: CD11b+ APCs from liver-draining LNs and liver Kupffer cells; assay: Suppression of antigen presentation by APCs by liver iNKT cells from treated mice; type: cell-based, mouse; conditions: APCs from untreated mice, FIG. 9
# Text: (§1) Next the mechanisms of disease suppression were investigated.
# wild-type NOD.c3c4 mice = assay: Cytokine/cytokine receptor blockade of therapeutic activity in treated NOD.c3c4 mice; type: in vivo, mouse
# [2] = tested on: spontaneous PBC-like disease in NOD.c3c4 mice; assay: Treatment of spontaneous PBC-like disease in NOD.c3c4 mice; type: in vivo, mouse; conditions: FIG. 2
# Text: FIG. 2 illustrates the effect of treatment with αGalCer (KRN7000)/CD1d-coated NPs vs soluble KRN7000 or uncoated NPs on readouts of PBC in NOD.c3c4 mice. CBD, Common Bile Duct.
# [3] = tested on: liver iNKT cells, Kupffer cells and B-lymphocytes; assay: Spinning-disk confocal intravital microscopy of liver in Cxcr6GFP/+ Ifng-Delta-ARE+/- (NOD×B6) F1 mice; type: in vivo, mouse
# Text: To get further insights into downstream cellular targets, spinning-disk confocal intravital microscopy was used to track αGalCer/CD1d-NP-induced iNKT cells, Kuppfer cells, and B-lymphocytes in the livers of treated and untreated Ifng-Delta-ARE^+/− (NOD×B6) F1 mice, which also develop spontaneous PBC-like disease. To track iNKT cells in vivo, Cxcr6^GFP/+ mice were used, in which 60-80% of liver eGFP+ cells are iNKT cells, the remainder being NK and T-cells (Geissmann et al., 2005; Liew et al., 2017). In sterile injury in the liver, recognition of endogenous glycolipid ligands on endothelial cells, Kupffer cells and other CD1d-expressing liver cells by iNKT cells result in the conversion of proinflammatory CCR2+ Ly6Chi monocytes into regulatory CX3CR1+ Ly6Clow monocytes, a process that is driven by iNKT-cell-derived IL-4. […] Although there were similar numbers of B-cells in the liver of untreated mice, they […] in interactions with Cxcr6+ cells to the same extent. […] See Lee, W. Y., et al. (2010). “An intravascular immune response to Borrelia burgdorferi involves Kupffer cells and iNKT cells” Nat. Immunol. 11, 295-302.
# B-cells = assay: Breg cell formation from transferred Il10-eGFP B cells in treated NOD.c3c4 mice; type: in vivo, mouse; conditions: within 7 days of transfer; B-cells pulsed with αGalCer or not
# Text: This was done by transferring αGalCer-pulsed or non-pulsed B cells carrying an eGFP transgene in the Il10 locus into αGalCer/CD1d-NP-treated or untreated NOD.c3c4 mice, and enumerated the frequency of transferred CD5+ and CD1d^high B-cells that acquired eGFP expression within 7 days. […] Thus, αGalCer/CD1d-NP treatment triggers iNKTR1 cell formation which then drive Breg cell formation by recognizing endogenous B-cell antigenic ligand(s) in a CD1d-restricted manner.
# NOD.c3c4.scid mice = assay: Transfer of disease protection by liver iNKT cells to NOD.c3c4.scid mice reconstituted with diseased splenocytes; type: in vivo, mouse; conditions: vs liver iNKT cells from control NOD.c3c4 donors; FIG. 10
# Text: as §1
# iNKT cells = assay: Flow cytometry of iNKT cells (αGalCer/CD1d tetramer stained) from treated NOD.c3c4 mice; type: in vivo, mouse
# Text: FIG. 3 illustrates the effect of treatment with αGalCer (KRN7000)/CD1d-coated NPs vs uncoated NPs on the CD4/CD8 phenotype of liver (top) and splenic (bottom) iNKT cells (stained with αGalCer (KRN7000)/CD1d tetramers).
# FIG. 4 illustrates the effect of treatment with αGalCer (KRN7000)/CD1d-coated NPs vs uncoated NPs on the levels of PD1, CD49d, CD69 and LAG3 in liver iNKT cells (stained with αGalCer (KRN7000)/CD1d tetramers).
# liver iNKT cells = assay: RNA sequencing (RNAseq) of liver iNKT cells sorted from treated vs. untreated NOD.c3c4 mice; type: in vivo, mouse
# Protocol: FIG. 5 illustrates normalized RNA expression counts (±SEM) for iNKT-relevant genes in the liver iNKT cells of NOD.c3c4 mice treated with αGalCer (KRN7000)/CD1d-NPs vs. control NOD.c3c4 mice.
# To investigate this, RNA sequencing (RNAseq) studies of liver iNKT cells sorted from αGalCer/CD1d-NP-treated vs. untreated NOD.c3c4 mice was performed. […] When considering genes known to be expressed in various iNKT cell subsets (Gapin, L. (2016). “Development of invariant natural killer T cells” Curr. Opin. Immunol. 39, 68-74) including iNKT1 (Zbtb16 (PLZF)-low, Tbx21 (Tbet)+, Gata3−, Rorc (RORgt)−, Foxp3−, Maf−, Cd24−, Cd44+, Klrb1 (NK1.1)+, Ifbg+, IL2−, Il4+, Il17−, Il10−, Il21−, Il2rb (Cd122)+, Mirlet7 (LET-7)+, Znf683 (HOBIT)-high), iNKT2 (Zbtb16-high, Tbx21−, Gata3+, Rorc−, Maf−, Foxp3−, Cd24−, Cd44+, Klrb1−, Ifng−, Il2−, Il4+, Il17−, Il10−, Il21−, Il17rb+, Tnfsf11 (RANKL)+; and iNKT17 (Zbtb16-int, Tbx21−, Gata3−, Rorc+, Foxp3−, Maf-low, Cd24−, Cd44+, Klrb1-low/−, Il2−, il4−, Ifng−, Il17+, Il10−, Il21−, Tgfbr2+, Tnfsf11+), the liver iNKT cells of non-treated NOD.c3c4 mice appeared to be rather unique (Zbtb16+, Tbx21+, Gata3+, Rorc-low, Foxp3−, Maf-low, Cd24-low, Cd44+, Klrb1+, Il2−, Il4-low, Ifng+, Il17−, Il10−, Il21−, Il2rb+, Il17rb-low, Tgfbr2+, Mirlet7−, Znf683−, Tnfsf11−). Remarkably, the liver iNKT cells from treated animals were somewhat similar to the latter, except that they were Rorc−, Maf-high, Il10-high, Il21-high, Il2rb+, Il17rb− and Tgfbr2-low. […] The liver iNKT cells of treated mice were also different from αGalCer-induced NKT10 cells, based on available gene expression data (Il10+, Klrb1-low, Nfil3+ (E4BP4, which regulates IL-10 and IL-13 expression), Nrp1+, Itga4+, Itgae−, Ctla4+, Fr4+, Bcl6−, Il7r+, Slamf6-high, Icos+) (Sag et al., 2014). Unlike these iNKT10 cells, the liver iNKT cells from treated mice were Nfli3−, Nrp1-low, Fr4−, Bcl6-low and Il7r-low. […] These observations were substantiated by comparing the liver iNKT RNAseq data from αGalCer/CD1d-NP-treated and untreated mice to iNKT1, iNKT2, iNKT10 and iNKT17 RNAseq data from Engel et al. (Engel, I., et al. (2016). “Innate-like functions of natural killer T cell subsets result from highly divergent gene programs” Nat. Immunol. 17, 728-739.) (FIG. 6A to 6D)
# To ascertain if some of the gene expression differences that were observed between the liver iNKT cells of αGalCer/CD1d-NP-treated and untreated mice were driven, at least in part, by their unique transcriptional factor expression profile, which transcription factors were associated with expression of differentially expressed genes was determined.
# Consequently, these αGalCer/CD1d-NP-induced liver iNKT cells are called iNKTR1 cells.
# [4] = flow cytometry, vs liver iNKT cells of control (untreated or Cys-NP-treated) mice, FIG. 4
# [5] = treated NOD.c3c4 mice, not shown
# [6] = RNAseq, negative in liver iNKT cells of untreated mice
# [7] = RNAseq, treated mice, unlike iNKT10 cells
# [8] = RNAseq, treated vs untreated mice
substance,measurement,setting,value
αGalCer/CD1d-NP: nanoparticles coupled to CD1d molecules whose binding groove is loaded with alpha-galactosylceramide (KRN7000),suppression of presentation of IGRP206-214 peptide to cognate TCR-transgenic CD8+ T-cells,[1],could suppress
same,effect of IL-21R blockade on therapeutic activity,"wild-type NOD.c3c4 mice; mouse, in vivo",abrogated
same,inhibition of therapeutic activity by IFNγ blockade,wild-type NOD.c3c4 mice; wild-type NOD.c3c4 mice,not
same,inhibition of therapeutic activity by IL-4 blockade,wild-type NOD.c3c4 mice; wild-type NOD.c3c4 mice,to a lesser extent
same,inhibition of therapeutic activity by IL-10 blockade,wild-type NOD.c3c4 mice; wild-type NOD.c3c4 mice,partially inhibited
same,effect on spontaneous PBC-like disease,[2],profound suppressive effect
same,B-cell killing through iNKT-B-cell interactions,[3]; 4 days after the last dose,did not appear to result in B-cell killing
same,interaction of liver iNKT cells with B-cells,"[3]; 4 days after the last dose, anti-CD19 labelled B-cells",seeking and engaging
same,number of liver iNKT cells,"[3]; bi-weekly treatment, vs untreated mice",massive increase
same,motility of liver iNKT cells,[3]; imaged 4 days after the last dose,highly motile
same,motility of liver iNKT cells,[3]; imaged within 4 hours of a dose,stopped moving
same,conversion of transferred B-cells into IL-10/eGFP-expressing CD1d-high/CD5+ Breg cells,B-cells,"Breg cell formation in treated, but not untreated animals; also recorded: can trigger the conversion"
same,transfer of disease protection by liver iNKT cells from treated mice,NOD.c3c4.scid mice,could transfer disease protection
same,CD4/CD8 phenotype of splenic and liver-associated iNKT cells,"iNKT cells; at the expense of CD4−CD8− iNKT cells, FIG. 3",enriched for CD4+CD8− iNKTs
same,CD69 level on iNKT cells,iNKT cells; [4],significantly higher levels
same,CD49d level on iNKT cells,iNKT cells; [4],significantly higher levels
same,Lag-3 level on iNKT cells,iNKT cells; [4],significantly higher levels
same,PD1 level on iNKT cells,iNKT cells; [4],significantly higher levels
same,circulating frequency of iNKT cells,iNKT cells; [5],slight increase
same,iNKT content in spleen and lymph nodes (liver-draining and not),iNKT cells; [5],slight decrease
same,expression levels of compared genes in induced liver iNKT cells vs TR1 cells,"liver iNKT cells; 66 genes, normalized gene counts, FIG. 8",highly similar levels of expression
same,genes with >4-fold differences in expression compared with TR1 cells,"liver iNKT cells; FIG. 8, number of genes",66
same,IL-10 (Il10) expression in liver iNKT cells,"liver iNKT cells; RNA, treated vs untreated mice",high upregulation; also recorded: Il10-high; also recorded: several hundred-fold higher levels
same,IL-21 (Il21) expression in liver iNKT cells,"liver iNKT cells; RNA, treated vs untreated mice",Il21-high; also recorded: high upregulation; also recorded: several hundred-fold higher levels
same,CTLA4 (Ctla4) expression in liver iNKT cells,liver iNKT cells; [6],high levels; also recorded: high upregulation
same,Itga4 (CD49d) expression in liver iNKT cells,liver iNKT cells; [6],high levels
same,Lag3 expression in liver iNKT cells,liver iNKT cells; [6],high levels; also recorded: high upregulation
same,Slamf6 expression in liver iNKT cells,liver iNKT cells; [6],high levels
same,Bcl6 expression in liver iNKT cells,"liver iNKT cells; RNAseq, treated mice",Bcl6-low; also recorded: low levels
same,Ccr6 expression in liver iNKT cells,"liver iNKT cells; RNAseq, treated mice",significantly downregulated
same,Il7r expression in liver iNKT cells,"liver iNKT cells; RNAseq, treated mice",significantly downregulated; also recorded: Il7r-low
same,Itgae (CD103) expression in liver iNKT cells,"liver iNKT cells; RNAseq, treated mice",significantly downregulated
same,Nrp1 expression in liver iNKT cells,"liver iNKT cells; RNAseq, treated mice",Nrp1-low
same,Tnfrsf14 (BTLA) expression in liver iNKT cells,"liver iNKT cells; RNAseq, treated mice",significantly downregulated
same,Fr4 expression in liver iNKT cells,liver iNKT cells; [7],Fr4−
same,Nfil3 expression in liver iNKT cells,liver iNKT cells; [7],Nfli3−
same,Cxcr5 expression in liver iNKT cells,"liver iNKT cells; RNAseq, treated mice, unlike iNKT-FH cells",lack expression
same,Gata3 expression in liver iNKT cells,liver iNKT cells; [8],significantly upregulated
same,PD1 expression in liver iNKT cells,liver iNKT cells; [8],high upregulation
same,TIGIT expression in liver iNKT cells,liver iNKT cells; [8],high upregulation
same,Vdr expression in liver iNKT cells,liver iNKT cells; [8],significantly upregulated
same,c-maf (Maf) expression in liver iNKT cells,liver iNKT cells; [8],high upregulation; also recorded: Maf-high; also recorded: significantly upregulated
same,Il2rb expression in liver iNKT cells,"liver iNKT cells; RNAseq, untreated: Il2rb+",Il2rb+
same,Il17rb expression in liver iNKT cells,"liver iNKT cells; RNAseq, untreated: Il17rb-low",Il17rb−
same,Rorc expression in liver iNKT cells,"liver iNKT cells; RNAseq, untreated: Rorc-low",Rorc−
same,Tgfbr2 expression in liver iNKT cells,"liver iNKT cells; RNAseq, untreated: Tgfbr2+",Tgfbr2-low
same,differentially expressed genes shared by the TR1 cells,"liver iNKT cells; of 238, comparison of RNA-seq profiles",91
same,differentially expressed genes also upregulated in cognate TR1-like CD4+ T-cells of pMHCII-NP-treated mice,"liver iNKT cells; of 238, number of genes",138
same,"downregulated genes co-regulated by Maf, Gata3 and Vdr","liver iNKT cells; of the 71 downregulated, FIG. 7",none
same,"upregulated protein-coding genes co-regulated by Maf, Gata3 and Vdr","liver iNKT cells; of the 135 upregulated, FIG. 7",66
same,differentially expressed genes also upregulated in cognate TR1-like CD4+ T-cells of pMHCII-NP-treated mice,liver iNKT cells; share of 238 genes,58%
same,number of differentially expressed genes in liver iNKT cells,liver iNKT cells; treated vs untreated mice,238
same,number of downregulated protein-coding genes in liver iNKT cells,liver iNKT cells; treated vs untreated mice,71
same,number of upregulated protein-coding genes in liver iNKT cells,liver iNKT cells; treated vs untreated mice,135
